Experimental data: paper PMC6094398, “New tools for evaluating protein tyrosine sulfation: tyrosylprotein sulfotransferases (TPSTs) are novel targets for RAF protein kinase inhibitors” (Biochemical Journal, 2018)
pIC50: −log10 of the molar value. Where two headings read alike, the source gives them in different places.

What was measured:
human TPST1 [1] = biological target: T1, human TPST1 (Homo sapiens, UniProt O60507); assay: Differential scanning fluorimetry (thermal shift) assay with TPST1; type: binding; conditions: TPST1 5 µM; for Thermal shift of TPST1 in the presence of Mg2+ ions (in words): 0.5 mM nucleotide + 10 mM MgCl2; for Thermal shift of TPST1 (in words): panel of nucleotide-based cofactors
T1 construct: human TPST1 (residues Lys43–Leu360) and TPST2 (residues Gly43–Leu359) enzymes lacking the transmembrane domains; made in house; host or cells: E. coli BL21 (DE3) pLysS
T1 sequence (O60507 43-360): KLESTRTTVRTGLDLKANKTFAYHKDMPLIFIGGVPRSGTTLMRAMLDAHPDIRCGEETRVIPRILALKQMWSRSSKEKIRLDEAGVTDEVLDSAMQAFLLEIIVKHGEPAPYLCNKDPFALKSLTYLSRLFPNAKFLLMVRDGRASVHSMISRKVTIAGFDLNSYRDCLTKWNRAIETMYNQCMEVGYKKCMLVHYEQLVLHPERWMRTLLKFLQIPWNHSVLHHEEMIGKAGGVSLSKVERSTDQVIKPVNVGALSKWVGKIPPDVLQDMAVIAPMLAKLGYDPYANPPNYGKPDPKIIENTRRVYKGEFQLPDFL

human TPST2 = biological target: T2, human TPST2 (Homo sapiens, UniProt O60704); assay: Differential scanning fluorimetry (thermal shift) assay with TPST2; type: binding; conditions: DSF, TPST2 5 µM; for Thermal shift of TPST2 in the presence of Mg2+ ions (in words): 0.5 mM nucleotide + 10 mM MgCl2; for Thermal shift of TPST2 (in words): 0.5 mM nucleotide, panel of nucleotide-based cofactors
T2 construct: TPST2 (residues Gly43–Leu359) enzymes lacking the transmembrane domains; made in house; host or cells: E. coli BL21 (DE3) pLysS
T2 sequence (O60704 43-359): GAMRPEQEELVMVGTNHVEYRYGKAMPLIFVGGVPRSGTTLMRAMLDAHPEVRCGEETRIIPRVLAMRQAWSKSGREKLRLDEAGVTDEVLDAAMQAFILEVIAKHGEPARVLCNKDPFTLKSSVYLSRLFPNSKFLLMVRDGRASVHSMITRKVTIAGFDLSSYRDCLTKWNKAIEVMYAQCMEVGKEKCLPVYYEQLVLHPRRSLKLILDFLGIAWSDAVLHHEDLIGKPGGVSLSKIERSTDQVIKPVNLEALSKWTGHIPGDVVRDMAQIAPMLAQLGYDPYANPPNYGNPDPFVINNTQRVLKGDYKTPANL

human TPST1 [2] = biological target: T1, human TPST1; assay: EZ Reader II microfluidic mobility-shift CC4-tide sulfation assay, TPST1; type: biochemical
[3] = test system: heparin sulfate 2-O sulfotransferase HS2ST; parameters: method as in PMID 29934491; conditions: cited from earlier work
human TPST1 [4] = biological target: T1, human TPST1; assay: GST-CC4-tide tyrosine sulfation by TPST1, immunoblotting with monoclonal sulfotyrosine antibody; type: biochemical; conditions: GST-CC4-tide 1 µg, 10 µM PAPS, increasing concentrations of inhibitor
Method: After the assay, proteins were denatured in Laemmli sample buffer, heated at 95°C for 5 min and then analysed by SDS–PAGE with 10% (v/v) polyacrylamide gels. Gels were stained and destained using a standard Coomassie Brilliant Blue protocol. To evaluate protein sulfation and phosphorylation by immunoblotting, standard western blotting procedures were followed using monoclonal anti-sulfotyrosine antibody clone Sulfo-1C-A2 (Millipore) generated using a phage display procedure and sulfotyrosine selection peptide antigens in the presence of appropriate positive and negative controls, and modifications visualised using the ECL reagent.

[5] = Fig 5A, CC4-tide, 10 µM PAPS, 0.1 µM TPST1, absence of MgCl2, read-out: IC50 TPST1, panel of nucleotides
[6] = Fig 7C, TPST1 0.1 µM, CC4-tide, 10 µM PAPS, 30 min at 37°C, duplicate, read-out: TPST1 estimated IC50, PKIS inhibitors

**Q.** With `Nc1ncnc2c1ncn2[C@@H]1O[C@H](COP(=O)(O)OP(=O)(O)O)[C@@H](O)[C@H]1O` [ADP, adenosine 5′-diphosphate] as the molecule, how does the “Thermal shift of TPST1 in the presence of Mg2+ ions (in words)” value (human TPST1 [1]; DSF) read?
**A.** The value was “abolished”.

**Q.** And the “Thermal shift of TPST1 (in words)” value (human TPST1 [1]; DSF, 0.5 mM nucleotide)?
**A.** The value was “marked stabilisation”.

**Q.** What about the “Thermal shift of TPST2 in the presence of Mg2+ ions (in words)” value (human TPST2) of the same molecule?
**A.** The value was “abolished”.

**Q.** What about the “Thermal shift of TPST2 (in words)” value (human TPST2) of the same molecule?
**A.** Its value is “marked stabilisation”.

**Q.** What does the source list for `Nc1ncnc2c1ncn2[C@@H]1O[C@H](COP(=O)(O)O)[C@@H](O)[C@H]1O` [AMP, adenosine 5′-monophosphate]?
**A.** Thermal shift of TPST1 (in words) (human TPST1 [1]; DSF, 0.5 mM nucleotide): lack of significant thermal shift; Thermal shift of TPST2 (in words) (human TPST2): lack of significant thermal shift

**Q.** With `Nc1ncnc2c1ncn2[C@@H]1O[C@H](COP(=O)(O)OP(=O)(O)OP(=O)(O)O)[C@@H](O)[C@H]1O` [ATP, adenosine 5′-triphosphate] as the molecule, how does the pIC50 (human TPST1 [2]; [5]) read?
**A.** The pIC50 was 3.42.

**Q.** For `O=C(O)C1=CC(=C(c2ccc(O)c(C(=O)O)c2)c2ccc(O)c(C(=O)O)c2)C=CC1=O` [Aurintricarboxylic acid, aurintricarboxylic acid], which “HS2ST inhibition in vitro (in words)” value [3] is on record?
**A.** The value was “inhibitory activity”.

**Q.** Which results are given for `CC(C)(COP(=O)(O)OP(=O)(O)OC[C@H]1O[C@@H](n2cnc3c(N)ncnc32)[C@H](O)[C@@H]1OP(=O)(O)O)[C@@H](O)C(=O)NCCC(=O)NCCS` [CoA, coenzyme A]?
**A.** Thermal shift of TPST1 (in words) (human TPST1 [1]; DSF, 0.5 mM nucleotide): marked stabilisation; ΔTm TPST1 (human TPST1 [1]; DSF, 0.5 mM nucleotide, relative to buffer control): ~11 °C; Thermal shift of TPST2 (in words) (human TPST2): marked stabilisation; Sensitivity of TPST1 inhibition to the concentration of PAPS (human TPST1 [2]; CC4-tide, increasing PAPS, fixed 20 µM PAP or 100 µM ATP, CoA, dephospho-CoA): highly sensitive; pIC50 (human TPST1 [2]; [5]): 4.06

**Q.** For `CC(C)(C)c1nc(-c2cccc(NS(=O)(=O)c3c(F)cccc3F)c2F)c(-c2ccnc(N)n2)s1` [Dabrafenib, dabrafenib], which “TPST1 inhibition at 400 μM” value (human TPST1 [2]; Fig 8A, TPST1 0.1 µM, inhibitor 400 µM, 10 µM PAPS, duplicate) is on record?
**A.** Its value is “essentially complete TPST1 inhibition”.

**Q.** And the pIC50 (human TPST1 [2]; Fig 8B, TPST1 0.1 µM pre-incubated with compound, 10 µM PAPS, read-out: TPST1 estimated IC50, RAF kinase inhibitors)?
**A.** The pIC50 was 3.57.

**Q.** What does the source list for `Nc1nc2c(ncn2[C@@H]2O[C@H](COP(=O)(O)OP(=O)(O)OP(=O)(O)O)[C@@H](O)[C@H]2O)c(=O)[nH]1` [GTP, guanosine 5′-triphosphate]?
**A.** Thermal shift of TPST1 in the presence of Mg2+ ions (in words) (human TPST1 [1]; DSF): abolished; Thermal shift of TPST1 (in words) (human TPST1 [1]; DSF, 0.5 mM nucleotide): marked stabilisation; Thermal shift of TPST2 in the presence of Mg2+ ions (in words) (human TPST2): abolished; Thermal shift of TPST2 (in words) (human TPST2): marked stabilisation

**Q.** What does the source list for `O=C1Nc2ccc(I)cc2C1=Cc1cc(Br)c(O)c(Br)c1` [GW305074X]?
**A.** pIC50 (human TPST1 [2]; [6]): ~5.30; Inhibition of GST-CC4-tide tyrosine sulfation by TPST1 (immunoblot, in words) (human TPST1 [4]): low-micromolar inhibitor

**Q.** With `COC(=O)c1ccc2c(c1)C(=Cc1cc(Br)c(O)c(Br)c1)C(=O)N2` [GW405841X] as the molecule, how does the pIC50 (human TPST1 [2]; [6]) read?
**A.** The pIC50 was under 4.40.

**Q.** With `O=C1Nc2ccc(C(=O)c3ccco3)cc2C1=Cc1cc(Cl)c(O)c(Cl)c1` [GW406108X] as the molecule, how does the “TPST1 DSF screen of PKIS, rank of hit” value (human TPST1 [1]; 20 µM compound, 4% DMSO, hit cut-off ΔTm ± 0.5°C) read?
**A.** Its value is “top compound”.

**Q.** And the pIC50 (human TPST1 [2]; [6])?
**A.** Its pIC50 is 4.80.

**Q.** With `Nc1nc(-c2ccc3c(c2)C(=Cc2cc(Br)c(O)c(Br)c2)C(=O)N3)cs1` [GW407323A] as the molecule, how does the pIC50 (human TPST1 [2]; [6]) read?
**A.** Its pIC50 is 5.22.

**Q.** With `O=C1Nc2ccc(-c3cccnc3)cc2C1=Cc1cc(Br)c(O)c(Br)c1` [GW429374A] as the molecule, how does the pIC50 (human TPST1 [2]; [6]) read?
**A.** The pIC50 was 5.01.

**Q.** Which inhibition at 20 µM (human TPST1 [2]; at 20 μM, read-out: TPST1 enzyme inhibition, PKIS screen) does the source give for `CNC(=O)c1cncc(/C=C/c2ccccc2C)c1` [GW445015X] here?
**A.** Its inhibition at 20 µM is over 40%.
